Assay results published in EP3114111B1, “BICYCLIC PYRROLE DERIVATIVES USEFUL AS AGONISTS OF GPR120” (Janssen Pharmaceutica NV, priority 2014, dated 2015).

What was measured:
C57bl6 Mouse = test: GPR120 C57bl6 Mouse IPGTT; assay type: in vivo, C57bl/6J Mice
Method: Male, C57bl/6J Mice were ordered in at 8 weeks of age from Jackson Labs. Individual mice weighed anywhere in the range of 25-30 grams on study day. The mice were fasted, with removal of food occurring at 7am on the morning of the study. Animals were moved into the room at 10:00am, to give them time to acclimate. Glucose (insulin syringes) was drawn up either the night before or the morning of the study. Glucose was dosed (IP) at 1.5g/kg at 7.5ml/kg (20% glucose straight TEKNOVA, 250ml sterile bottle w/ catalogue number G0525). Test compounds were kept spinning and were only drawn into the syringes prior to study commencement. Animals were bled via tail snip to determine basal glucose levels prior to dosing of treatments. An Ascensia BREEZE Blood Glucose Monitoring System by Bayer (using unique 10-test disks) was used for determining glucose levels. The bleeds started at approximately 12:45pm and dosing started, at 1-minute intervals, immediately after. All groups were dosed 30 minutes prior to glucose administration at a dose volume of 10ml/kg (the dose volume was calculated separately for each individual animal). Thirty minutes after the first dose animals were bled again for a second baseline, or T=0, and immediately dosed with glucose via an i.p. injection. The exact dose volume for glucose was also calculated separately for each individual animal. Glucose measurements were taken at -30min prior to compound dose, at t=0 (immediately prior to glucose dose), and at 15, 30, 45, 60, 90min post glucose dose.
Glucose values were entered into an Excel sheet and graphed in GraphPad Prism. The following were calculated from Prism: Change from -30 to 0 BSLN Glucose, Raw Glucose AUC -30 to 90min, Delta Glucose AUC -30 to 90min, Raw Glucose AUC 0 to 90min, Delta Glucose AUC 0 to 90min.

DIO Mice = test: GPR120 DIO Mice OGTT Screening; assay type: in vivo, C57BI6 mice; details: for DIO Lowering Glucose AUC: DIO mice OGTT; for Lowering Glucose AUC: DIO Dose Response
Method: 18-22 week old, C57BI6 mice on a high fat diet (60% HFD) for 12-16 weeks (ave. body weight ∼ 37-41g) were fasted for 6hr, with removal of food occurring at 7 am on the morning of the study. The animals were sorted into treatment groups the day before the study by body weight. Animals outside the bounds of ∼30-50g were left out of the study. The animals had been handled and shammed a total of 5-8 days (1-3 days immediately prior to the study). Glucose (in 1ml syringes) was drawn up the morning of the study. Test compounds were kept spinning and were only drawn into 1ml syringes prior to study commencement. Animals were bled via tail snip to determine basal glucose levels prior to dosing of treatments. An Ascensia BREEZE Blood Glucose Monitoring System by Bayer was used for determining glucose levels.
Animals were moved into the testing room at ∼9-11am, to yield them time to acclimate. The bleeds and dosing started at approximately 1pm in 30-second intervals per animal. All groups were dosed 30 minutes prior to glucose administration at a dose volume of 10ml/kg (the dose volume was calculated separately for each individual animal). Test compounds were administered at two or more of the following dosages: 0.1 mg/kg, 0.3 mg/kg, 1 mg/kg, 3 mg/kg, 10 mg/kg and 30 mg/kg.
Thirty minutes after the first dose (with test compound) animals were bled again for a second baseline, or T=0, and immediately dosed with glucose (20% solution; TEKNOVA, 250ml sterile bottle w/ catalogue number G0525) via a PO injection. The exact dose volume for glucose was also calculated separately for each individual animal.
Blood glucose was measured at 15, 30, 45, 60, and 90 minutes post-glucose administration via the snipped tail. If an animal reached a value of "HI", the upper limit of the glucometer (600mg/dl) was substituted as the blood glucose value and the study was analyzed as normal with no exclusions. If 50% or more of any treatment group reaches a "HI" value at least once, the study was considered invalid and repeated. Glucose values were typed into an EXCEL spreadsheet where they were used to calculate glucose AUC and delta AUC post-compound and post-glucose. The glucose excursion curves and the different versions of the AUC's were graphed in GraphPad Prism 5.
Note: All statistics completed in this study were completed using the statistical software package GraphPad Prism 5. Standard procedures for analyzing data sets from screening GPR120 compounds in DIO mouse OGTT's were as listed here below. In addition to the statistics that were run using GraphPad Prism 5, Microsoft Excel was used to calculate the percent changes in AUC from vehicle groups as detailed below.
Change from -30 to 0 BSLN Glucose, Raw Glucose AUC -30 to 90min, Delta Glucose AUC -30 to 90min, Raw Glucose AUC 0 to 90min, Delta Glucose AUC 0 to 90min were analyzed using Column Statistics Analysis, with mean values used to calculate % change from the vehicle mean group, as well as mean, SEM and / or % change from vehicle, where appropriate; and using One-Way ANOVA w/ a Tukey Post-Test (Comparing All Pairs of Columns) with each treatment group examined to see if it was statistically significant compared to vehicle (*= P<0.05, **= P<0.01, ***= P<0.001).

| Structure (SMILES) | GPR120 C57bl6 Mouse IPGTT Results (C57bl6 Mouse; 10.0 mg/kg) | DIO Lowering Glucose AUC (DIO Mice; 3 mg/kg) [%] | DIO Lowering Glucose AUC (DIO Mice; 10 mg/kg) [%] | also measured |
| --- | --- | --- | --- | --- |
| Cc1ccc(-n2ccc(C(F)(F)F)c2COc2c(F)cc(CCCO)cc2F)cc1 [Compound 37, 3-(3,5-Difluoro-4-{[1-(4-methylphenyl)-3-(trifluoromethyl)-1H-pyrrol-2-yl]methoxy}phenyl)propan-1-ol] | -30 | – | – | – |
| OCCCc1cc(F)c(OCc2c(C(F)(F)F)ccn2-c2ccc(Br)cc2)c(F)c1 [Compound 30, 3-(4-{[1-(4-Bromophenyl)-3-(trifluoromethyl)-1H-pyrrol-2-yl]methoxy}-3,5-difluorophenyl)propan-1-ol] | -53 | – | – | C57bl6 Mouse IPGTT dose response (C57bl6 Mouse; 1 mg/kg): 1%; C57bl6 Mouse IPGTT dose response (C57bl6 Mouse; 3 mg/kg): -14%; C57bl6 Mouse IPGTT dose response (C57bl6 Mouse; 10 mg/kg): -48% |
| Cc1ccc(-n2ccc(C(F)(F)F)c2COc2c(F)cc(CCC(=O)O)cc2F)cc1 [Compound 39, 3-(3,5-Difluoro-4-{[1-(4-methylphenyl)-3-(trifluoromethyl)-1H-pyrrol-2-yl]methoxy}phenyl)propanoic acid] | – | -59 | -68 | – |
| O=C(O)CCc1cc(F)c(OCc2c(C(F)(F)F)ccn2-c2ccc(Cl)cc2)c(F)c1 [Compound 70, 3-(4-{[1-(4-Chlorophenyl)-3-(trifluoromethyl)-1H-pyrrol-2-yl]methoxy}-3,5-difluorophenyl)propanoic acid] | – | -79 | -82 | Lowering Glucose AUC (DIO Mice; 0.1 mg/kg): 9%; Lowering Glucose AUC (DIO Mice; 0.3 mg/kg): -8%; Lowering Glucose AUC (DIO Mice; 1.0 mg/kg): -54%; Lowering Glucose AUC (DIO Mice; 3.0 mg/kg): -73% |
| CCc1ccc(-n2ccc(C(F)(F)F)c2COc2ccc(CCC(=O)O)c(F)c2F)cc1 [Compound 34, 3-(4-{[1-(4-Ethylphenyl)-3-(trifluoromethyl)-1H-pyrrol-2-yl]methoxy}-2,3-difluorophenyl)propanoic acid] | – | -27 | -50 | – |
| CCc1ccc(-n2ccc(C(F)(F)F)c2COc2c(F)cc(CCCO)cc2F)cc1 [Compound 33, 3-(4-{[1-(4-Ethylphenyl)-3-(trifluoromethyl)-1H-pyrrol-2-yl]methoxy}-3,5-difluorophenyl)propan-1-ol] | -26 | – | – | – |
| COc1ccc(-n2ccc(C(F)(F)F)c2COc2ccc(CCCO)c(F)c2F)cc1 [Compound 27, 3-(2,3-Difluoro-4-{[1-(4-methoxyphenyl)-3-(trifluoromethyl)-1H-pyrrol-2-yl]methoxy}phenyl)propan-1-ol] | -16 | – | – | – |
| Cc1c(CCC(=O)O)ccc(OCc2cccn2-c2ccc(Cl)cc2)c1C [Compound 1, 3-(4-{[1-(4-Chlorophenyl)-1H-pyrrol-2-yl]methoxy}-2,3-dimethylphenyl)propanoic acid] | – | – | – | GPR120 C57bl6 Mouse IPGTT Results (C57bl6 Mouse; 30.0 mg/kg): not different from vehicle |
| COc1ccc(-n2ccc(C(F)(F)F)c2COc2c(F)cc(CCCO)cc2F)cc1 [Compound 31, 3-(3,5-Difluoro-4-{[1-(4-methoxyphenyl)-3-(trifluoromethyl)-1H-pyrrol-2-yl]methoxy}phenyl)propan-1-ol] | -43 | – | – | C57bl6 Mouse IPGTT dose response (C57bl6 Mouse; 1 mg/kg): 2%; C57bl6 Mouse IPGTT dose response (C57bl6 Mouse; 3 mg/kg): -39%; C57bl6 Mouse IPGTT dose response (C57bl6 Mouse; 10 mg/kg): -44% |
